Common to all, as to assay: relative viability (nuclei count vs DMSO), 5 days (fraction); higher = more cells survive
Compound in the assay “Elesclomol + Lapatinib”: CN(NC(=O)CC(=O)NN(C)C(=S)c1ccccc1)C(=S)c1ccccc1 [Elesclomol] + CS(=O)(=O)CCNCc1ccc(-c2ccc3ncnc(Nc4ccc(OCc5cccc(F)c5)c(Cl)c4)c3c2)o1 [Lapatinib] (partner 2 µM)
An outline of the steps:
(§1)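 Relative viability is defined as nuclei in treated wells over nuclei in vehicle wells. Duplicate plates were run and medians reported. Lung cancer cell lines in 1536-well plates were dosed by pin tool one day after seeding, with one drug or with a fixed anchor-drug dose plus five library-drug doses (not always all listed) in √10 steps, and nuclei were counted after 5 days.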

Compound in the assay “Elesclomol + Trametinib”: CN(NC(=O)CC(=O)NN(C)C(=S)c1ccccc1)C(=S)c1ccccc1 [Elesclomol] + CC(=O)Nc1cccc(-n2c(=O)n(C3CC3)c(=O)c3c(Nc4ccc(I)cc4F)n(C)c(=O)c(C)c32)c1 [Trametinib] (partner 0.02 µM)
In a few lines:
as §1

Compound in the assay “Elesclomol + Foretinib”: CN(NC(=O)CC(=O)NN(C)C(=S)c1ccccc1)C(=S)c1ccccc1 [Elesclomol] + COc1cc2c(Oc3ccc(NC(=O)C4(C(=O)Nc5ccc(F)cc5)CC4)cc3F)ccnc2cc1OCCCN1CCOCC1 [Foretinib] (partner 0.25 µM)
An outline of the steps: as §1

Compound in the assay “Elesclomol + Dasatinib”: CN(NC(=O)CC(=O)NN(C)C(=S)c1ccccc1)C(=S)c1ccccc1 [Elesclomol] + Cc1nc(Nc2ncc(C(=O)Nc3c(C)cccc3Cl)s2)cc(N2CCN(CCO)CC2)n1 [Dasatinib] (partner 0.075 µM)
An outline of the steps:
as §1

Compound in the assay “Elesclomol + Navitoclax”: CN(NC(=O)CC(=O)NN(C)C(=S)c1ccccc1)C(=S)c1ccccc1 [Elesclomol] + CC1(C)CCC(c2ccc(Cl)cc2)=C(CN2CCN(c3ccc(C(=O)NS(=O)(=O)c4ccc(N[C@H](CCN5CCOCC5)CSc5ccccc5)c(S(=O)(=O)C(F)(F)F)c4)cc3)CC2)C1 [Navitoclax] (partner 0.5 µM)
An outline of the steps: as §1

Regarding LXF-289, the relative viability with Elesclomol + Lapatinib (first compound 0.003162 µM) is 0.925; in the assay with Elesclomol + Lapatinib (first compound 0.01 µM), 0.881; with Elesclomol + Lapatinib (first compound 0.03162 µM), 0.876; with Elesclomol + Lapatinib (first compound 0.1 µM), 0.677; with Elesclomol + Trametinib (first compound 0.003162 µM), 0.676; in the assay with Elesclomol + Trametinib (first compound 0.01 µM), 0.65. For the same cell line, the relative viability with Elesclomol + Trametinib (first compound 0.03162 µM) was determined as 0.663; in the assay with Elesclomol + Trametinib (first compound 0.1 µM), 0.423; in the assay with Elesclomol + Foretinib (first compound 0.003162 µM) it was 0.979; with Elesclomol + Foretinib (first compound 0.01 µM), 0.942; in the assay with Elesclomol + Foretinib (first compound 0.03162 µM), 0.894; in the assay with Elesclomol + Foretinib (first compound 0.1 µM) it was 0.684. Also, the relative viability is 0.243 with Elesclomol + Dasatinib (first compound 0.003162 µM); 0.176 with Elesclomol + Dasatinib (first compound 0.01 µM); 0.202 with Elesclomol + Dasatinib (first compound 0.03162 µM); 0.113 with Elesclomol + Dasatinib (first compound 0.1 µM); 0.851 with Elesclomol + Navitoclax (first compound 0.003162 µM); 0.924 with Elesclomol + Navitoclax (first compound 0.01 µM). Also, the relative viability with Elesclomol + Navitoclax (first compound 0.03162 µM) came to 0.875; with Elesclomol + Navitoclax (first compound 0.1 µM), 0.575.
With NCI-H23, the relative viability worked out at 1.12 with Elesclomol + Lapatinib (first compound 0.003162 µM); 0.799 with Elesclomol + Lapatinib (first compound 0.03162 µM); 0.139 with Elesclomol + Lapatinib (first compound 0.1 µM); 0.426 in the assay with Elesclomol + Trametinib (first compound 0.003162 µM); 0.404 in the assay with Elesclomol + Trametinib (first compound 0.01 µM); 0.208 with Elesclomol + Trametinib (first compound 0.03162 µM). Also, the relative viability in the assay with Elesclomol + Trametinib (first compound 0.1 µM) is 0.117; in the assay with Elesclomol + Foretinib (first compound 0.003162 µM), 0.971; with Elesclomol + Foretinib (first compound 0.01 µM) it was 1.03; with Elesclomol + Foretinib (first compound 0.03162 µM), 0.746; in the assay with Elesclomol + Foretinib (first compound 0.1 µM) it was 0.247; with Elesclomol + Dasatinib (first compound 0.003162 µM), 0.823. For the same cell line, the relative viability with Elesclomol + Dasatinib (first compound 0.01 µM) was determined as 0.725; in the assay with Elesclomol + Dasatinib (first compound 0.03162 µM) it was 0.743; with Elesclomol + Dasatinib (first compound 0.1 µM), 0.171; with Elesclomol + Navitoclax (first compound 0.003162 µM), 0.799; with Elesclomol + Navitoclax (first compound 0.03162 µM) it was 0.761; with Elesclomol + Navitoclax (first compound 0.1 µM), 0.144.
For NCI-H322M, the relative viability with Elesclomol + Lapatinib (first compound 0.003162 µM) stood at 0.563; with Elesclomol + Lapatinib (first compound 0.03162 µM), 0.624; with Elesclomol + Lapatinib (first compound 0.1 µM) it was 0.399; with Elesclomol + Trametinib (first compound 0.003162 µM), 0.497; with Elesclomol + Trametinib (first compound 0.01 µM), 0.423; with Elesclomol + Trametinib (first compound 0.03162 µM), 0.298. Moreover, the relative viability was 0.217 in the assay with Elesclomol + Trametinib (first compound 0.1 µM); 0.837 in the assay with Elesclomol + Foretinib (first compound 0.003162 µM); 0.656 with Elesclomol + Foretinib (first compound 0.01 µM); 0.356 with Elesclomol + Foretinib (first compound 0.03162 µM); 0.26 with Elesclomol + Foretinib (first compound 0.1 µM); 0.251 with Elesclomol + Dasatinib (first compound 0.003162 µM). Moreover, the relative viability was 0.206 in the assay with Elesclomol + Dasatinib (first compound 0.01 µM); 0.123 with Elesclomol + Dasatinib (first compound 0.03162 µM); 0.0962 with Elesclomol + Dasatinib (first compound 0.1 µM); 1.27 with Elesclomol + Navitoclax (first compound 0.003162 µM); 1.06 with Elesclomol + Navitoclax (first compound 0.03162 µM); 0.858 with Elesclomol + Navitoclax (first compound 0.1 µM).
With NCI-H460, the relative viability was determined as 0.755 with Elesclomol + Lapatinib (first compound 0.003162 µM); 0.229 in the assay with Elesclomol + Lapatinib (first compound 0.01 µM); 0.0103 with Elesclomol + Lapatinib (first compound 0.03162 µM); 0.0101 with Elesclomol + Lapatinib (first compound 0.1 µM); 0.117 with Elesclomol + Trametinib (first compound 0.003162 µM); 0.203 in the assay with Elesclomol + Trametinib (first compound 0.01 µM). Moreover, the relative viability came to 0.0139 with Elesclomol + Trametinib (first compound 0.03162 µM); 0.0132 with Elesclomol + Trametinib (first compound 0.1 µM); 0.975 with Elesclomol + Foretinib (first compound 0.003162 µM); 0.848 with Elesclomol + Foretinib (first compound 0.01 µM); 0.27 in the assay with Elesclomol + Foretinib (first compound 0.03162 µM); 0.0259 in the assay with Elesclomol + Foretinib (first compound 0.1 µM). For the same cell line, the relative viability with Elesclomol + Dasatinib (first compound 0.003162 µM) was determined as 0.516; with Elesclomol + Dasatinib (first compound 0.01 µM) it was 0.422; with Elesclomol + Dasatinib (first compound 0.03162 µM), 0.0534; with Elesclomol + Dasatinib (first compound 0.1 µM), 0.0171; in the assay with Elesclomol + Navitoclax (first compound 0.003162 µM) it was 0.997; in the assay with Elesclomol + Navitoclax (first compound 0.01 µM), 0.379. The relative viability was 0.0164 with Elesclomol + Navitoclax (first compound 0.03162 µM) and 0.0095 with Elesclomol + Navitoclax (first compound 0.1 µM).
